According to patent US12240862B2, “Inhibitors of peptidylarginine deiminases” (Gilead Sciences, Inc., priority 2020, dated 2025):

Target: T1, human PAD4 (Homo sapiens, UniProt Q9UM07)
T1 construct: human PAD4 (NM_012387), A2P663, was PCR amplified; His-SUMO (N, cleaved yes); made in house; host or cells: E. coli BL21(DE3)
Test: In vitro PAD4 BAEE biochemical assay
Settings: human PAD4, BAEE substrate; 5 nM PAD4, 2 mM calcium chloride, 3 mM BAEE; geometric mean of multiple experiments
Outline: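 Tag-free recombinant hPAD4 (5 nM), 2 mM CaCl2, 3 mM BAEE, 50 mM MOPS pH 7.6, 2 mM DTT; 30 min compound preincubation, 2 h reaction, all 25 °C. EDTA quench; ammonia read via o-phthalaldehyde amine coupling, 1 h.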

T1 sequence (Q9UM07 2-663): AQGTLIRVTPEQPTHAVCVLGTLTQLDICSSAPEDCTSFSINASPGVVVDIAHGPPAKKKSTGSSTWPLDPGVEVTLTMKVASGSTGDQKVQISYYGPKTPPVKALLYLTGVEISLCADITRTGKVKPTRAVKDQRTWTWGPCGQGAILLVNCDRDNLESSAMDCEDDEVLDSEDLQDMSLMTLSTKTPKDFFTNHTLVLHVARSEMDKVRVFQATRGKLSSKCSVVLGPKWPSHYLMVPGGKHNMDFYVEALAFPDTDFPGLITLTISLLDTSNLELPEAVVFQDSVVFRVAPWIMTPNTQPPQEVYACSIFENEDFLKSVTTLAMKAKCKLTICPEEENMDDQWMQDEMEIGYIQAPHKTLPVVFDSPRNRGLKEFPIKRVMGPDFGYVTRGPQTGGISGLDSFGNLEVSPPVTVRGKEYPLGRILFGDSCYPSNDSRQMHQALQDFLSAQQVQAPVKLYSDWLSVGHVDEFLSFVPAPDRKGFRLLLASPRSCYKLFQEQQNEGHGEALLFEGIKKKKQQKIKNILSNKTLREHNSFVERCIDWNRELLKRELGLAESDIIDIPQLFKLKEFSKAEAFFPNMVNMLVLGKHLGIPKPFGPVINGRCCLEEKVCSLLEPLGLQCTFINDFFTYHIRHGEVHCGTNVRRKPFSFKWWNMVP

Row | IC50 [nM] | SMILES
1 | 1190 | COc1cc(C(=O)N2CCC[C@@H](N)C2)cc2nc(-c3cc4ccc(OCC(=O)N(C)C)nc4n3CC3CC3)c(C)n12 [Example 620, 2-[2-[7-[(3~{R})-3-aminopiperidine-1-carbonyl]-5-methoxy-3-methylimidazo[1,2-a]pyridin-2-yl]-1-(cyclopropylmethyl)pyrrolo[2,3-b]pyridin-6-yl] oxy-~{N},~{N}-dimethylacetamide]
2 | 544 | COc1cc(C(=O)N2CCC[C@@H](N)C2)cc2nc(-c3cc4ccc(C(C)C)nc4n3CC3CC3)c(C)n12 [Example 608, [(3~{R})-3-aminopiperidin-1-yl]-[2-[1-(cyclopropylmethyl)-6-propan-2-ylpyrrolo [2,3-b]pyridin-2-yl]-5-methoxy-3-methylimidazo [1,2-a]pyridin-7-yl] methanone]
3 | 77 | COc1cc(C(=O)N2[C@H]3CC[C@@H]2[C@H](N)C3)cc2nc(-c3cc4ccc([C@@H](C)NC(=O)C5CN(C(C)=O)C5)nc4n3CC3CC3)c(C)n12 [Example 149, 1-acetyl-~{N}-[(1~{R})-1-[2-[7-[(1~{R},2~{R},4~{S})-2-amino-7-azabicyclo [2.2.1]heptane-7-carbonyl]-5-methoxy-3-methylimidazo [1,2-a]pyridin-2-yl]-1-(cyclopropylmethyl)pyrrolo [2,3-b]pyridin-6-yl]ethyl] azetidine-3-carboxamide]
4 | 149 | COc1cc(C(=O)N2[C@H]3CC[C@@H]2[C@H](N)C3)cc2nc(-c3cc4ccc([C@@H](C)NC(=O)N5CC(C#N)C5)nc4n3CC3CC3)c(C)n12 [Example 234, ~{N}-[(1~{R})-1-[2-[7-[(1~{R},2~{R},4~{S})-2-amino-7-azabicyclo[2.2.1]heptane-7-carbonyl]-5-methoxy-3-methylimidazo [1,2-a]pyridin-2-yl]-1-(cyclopropylmethyl)pyrrolo [2,3-b]pyridin-6-yl]ethyl]-3-cyanoazetidine-1-carboxamide]
5 | 18200 | COc1cc(C(=O)N2C[C@@H]3CC[C@H]2[C@H](N)C3)cc2nc(-c3cc4ccc(N(C(F)F)S(C)(=O)=O)nc4n3CC3CC3)c(C)n12 [Example 377, ~{N}-[2-[7-[(1~{R},4~{S}, 6~{R})-6-amino-2-azabicyclo[2.2.2]octane-2-carbonyl]-5-methoxy-3-methylimidazo[1,2-a]pyridin-2-yl]-1-(cyclopropylmethyl)pyrrolo [2,3-b]pyridin-6-yl]-~{N}-(difluoromethyl) methanesulfonamide]
6 | 11300 | CC1(c2c(-c3cc4ccc(N(C(F)F)S(C)(=O)=O)nc4n3CC3CC3)nc3cc(C(=O)N4CCC[C@@H](N)C4)ccn23)CC1 [Example 435, ~{N}-[2-[7-[(3~{R})-3-aminopiperidine-1-carbonyl]-3-(1-methylcyclopropyl)imidazo[1,2-a]pyridin-2-yl]-1-(cyclopropylmethyl)pyrrolo[2,3-b]pyridin-6-yl]-~{N}-(difluoromethyl) methanesulfonamide]
7 | 6710 | COc1cc(C(=O)N2[C@H]3CC[C@@H]2[C@H](N)C3)cc2nc(-c3cc4ccc(N[C@@H](C)C(F)(F)F)nc4n3CC3CC3)c(C)n12 [Example 448, [(1~{R},2~{R},4~{S})-2-amino-7-azabicyclo [2.2.1]heptan-7-yl]-[2-[1-(cyclopropylmethyl)-6-[[(2~{S})-1,1,1-trifluoropropan-2-yl]amino]pyrrolo[2,3-b]pyridin-2-yl]-5-methoxy-3-methylimidazo[1,2-a]pyridin-7-yl]methanone]
8 | 29100 | CCC1CC[C@@H]2CCN(C(=O)c3cc(OC)n4c(C)c(-c5cc6ccc([C@@H](C)NC(=O)C78CC(F)(C7)C8)nc6n5CC5CC5)nc4c3)C[C@@H]2N1 (stereo partly shown) [Example 12, ~{N}-[(1~{R})-1-[2-[7-[(4~{a}~{R}, 8~{a}~{R})-2-ethyl-2,3,4,4~{a}, 5,6,8,8~{a}-octahydro-1~{H}-1,7-naphthyridine-7-carbonyl]-5-methoxy-3-methylimidazo[1,2-a]pyridin-2-yl]-1-(cyclopropylmethyl)pyrrolo[2,3-b]pyridin-6-yl]ethyl]-3-fluorobicyclo[1.1.1] pentane-1-carboxamide]
9 | 84.4 | COc1cc(C(=O)N2[C@H]3CC[C@@H]2[C@H](N)C3)cc2nc(-c3cc4ccc([C@@H](C)NC(=O)N(C)Cc5ccccc5)nc4n3CC3CC3)c(C)n12 [Example 240, 3-[(1~{R})-1-[2-[7-[(1~{R},2~{R},4~{S})-2-amino-7-azabicyclo[2.2.1]heptane-7-carbonyl]-5-methoxy-3-methylimidazo [1,2-a]pyridin-2-yl]-1-(cyclopropylmethyl)pyrrolo [2,3-b]pyridin-6-yl]ethyl]-1-benzyl-1-methylurea]
10 | 618 | COc1cc(C(=O)N2[C@H]3CC[C@@H]2[C@H](N)C3)cc2nc(-c3cc4ccc(C5CCCN(C(=O)C(C)(C)C)C5)nc4n3CC3CC3)c(C)n12 (stereo partly shown) [Example 517, 1-[3-[2-[7-[(1~{R},2~{R}, 4~{S})-2-amino-7-azabicyclo[2.2.1]heptane-7-carbonyl]-5-methoxy-3-methylimidazo[1,2-a]pyridin-2-yl]-1-(cyclopropylmethyl)pyrrolo[2,3-b]pyridin-6-yl]piperidin-1-yl]-2,2-dimethylpropan-1-one]
11 | 37.8 | COc1cc(C(=O)N2[C@H]3CC[C@@H]2[C@H](N)C3)cc2nc(-c3cc4ccc([C@@H](C)NC(=O)N5CC6C(C5)C6(F)F)nc4n3CC3CC3)c(C)n12 (stereo partly shown) [Example 209, ~{N}-[(1~{R})-1-[2-[7-[(1~{R},2~{R},4~{S})-2-amino-7-azabicyclo[2.2.1]heptane-7-carbonyl]-5-methoxy-3-methylimidazo [1,2-a]pyridin-2-yl]-1-(cyclopropylmethyl)pyrrolo [2,3-b]pyridin-6-yl]ethyl]-6,6-difluoro-3-azabicyclo[3.1.0]hexane-3-carboxamide]
12 | 31.5 | COc1cc(C(=O)N2[C@H]3CC[C@@H]2[C@H](N)C3)cc2nc(-c3cc4ccc([C@@H](C)NC(=O)NCc5ncccn5)nc4n3CC3CC3)c(C)n12 [Example 224, 1-[(1~{R})-1-[2-[7-[(1~{R},2~{R},4~{S})-2-amino-7-azabicyclo[2.2.1]heptane-7-carbonyl]-5-methoxy-3-methylimidazo [1,2-a]pyridin-2-yl]-1-(cyclopropylmethyl)pyrrolo [2,3-b]pyridin-6-yl]ethyl]-3-(pyrimidin-2-ylmethyl)urea]
13 | 233 | COc1cc(C(=O)N2[C@@H]3CC[C@@H](N)[C@H]2CC3)cc2nc(-c3cc4ccc(N(C(F)F)S(C)(=O)=O)nc4n3CC3CC3)c(C)n12 [Example 410, ~{N}-[2-[7-[(1~{R},2~{R}, 5~{R})-2-amino-8-azabicyclo[3.2.1]octane-8-carbonyl]-5-methoxy-3-methylimidazo[1,2-a]pyridin-2-yl]-1-(cyclopropylmethyl)pyrrolo [2,3-b]pyridin-6-yl]-~{N}-(difluoromethyl) methanesulfonamide]
14 | 673 | CCc1ccc2cc(-c3nc4cc(C(=O)N5[C@H]6CC[C@@H]5[C@H](N)C6)cc(OC)n4c3C)n(CCS(C)(=O)=O)c2n1 [Example 498, [(1~{R},2~{R},4~{S})-2-amino-7-azabicyclo [2.2.1]heptan-7-yl]-[2-[6-ethyl-1-(2-methylsulfonylethyl)pyrrolo[2,3-b]pyridin-2-yl]-5-methoxy-3-methylimidazo[1,2-a]pyridin-7-yl]methanone]
15 | 106 | COc1cc(C(=O)N2[C@H]3CC[C@@H]2[C@H](N)C3)cc2nc(-c3cc4ccc([C@@H](C)NC(=O)C5(C)CCOCC5)nc4n3CC3CC3)c(C)n12 [Example 135, ~{N}-[(1~{R})-1-[2-[7-[(1~{R},2~{R},4~{S})-2-amino-7-azabicyclo[2.2.1]heptane-7-carbonyl]-5-methoxy-3-methylimidazo [1,2-a]pyridin-2-yl]-1-(cyclopropylmethyl)pyrrolo [2,3-b]pyridin-6-yl]ethyl]-4-methyloxane-4-carboxamide]
16 | 771 | COc1cc(C(=O)N2C[C@H]3CCCN[C@H]3C2)cc2nc(-c3cc4ccc([C@@H](C)NC(=O)c5ccccc5)nc4n3CC3CC3)c(C)n12 [Example 58, ~{N}-[(1~{R})-1-[2-[7-[(4~{a}~{R}, 7~{a}~{R})-1,2,3,4,4~{a},5,7,7~{a}-octahydropyrrolo[3,4-b]pyridine-6-carbonyl]-5-methoxy-3-methylimidazo[1,2-a]pyridin-2-yl]-1-(cyclopropylmethyl)pyrrolo[2,3-b]pyridin-6-yl]ethyl]benzamide]
17 | 250 | COc1cc(C(=O)N2[C@H]3CC[C@@H]2[C@H](N)C3)cc2nc(-c3cc4ccc(N5C(=O)CCCC5C)nc4n3CC3CC3)c(C)n12 (stereo partly shown) [Example 456, 1-[2-[7-[(1~{R},2~{R}, 4~{S})-2-amino-7-azabicyclo[2.2.1]heptane-7-carbonyl]-5-methoxy-3-methylimidazo[1,2-a]pyridin-2-yl]-1-(cyclopropylmethyl)pyrrolo[2,3-b]pyridin-6-yl]-6-methylpiperidin-2-one]
18 | 274 | COc1cc(C(=O)N2[C@H]3CC[C@@H]2[C@H](N)C3)cc2nc(-c3cc4ccc(C5CCN(C(=O)C(C)(C)C)C5)nc4n3CC3CC3)c(C)n12 (stereo partly shown) [Example 530, 1-[3-[2-[7-[(1~{R},2~{R}, 4~{S})-2-amino-7-azabicyclo[2.2.1]heptane-7-carbonyl]-5-methoxy-3-methylimidazo[1,2-a]pyridin-2-yl]-1-(cyclopropylmethyl)pyrrolo [2,3-b]pyridin-6-yl]pyrrolidin-1-yl]-2,2-dimethylpropan-1-one]
19 | 47.2 | COc1cc(C(=O)N2[C@H]3CC[C@@H]2[C@H](N)C3)cc2nc(-c3cc4ccc([C@@H](C)NC(=O)[C@@H]5CC5(F)F)nc4n3CC3CC3)c(C)n12 [Example 130, (1~{S})-~{N}-[(1~{R})-1-[2-[7-[(1~{R},2~{R},4~{S})-2-amino-7-azabicyclo [2.2.1]heptane-7-carbonyl]-5-methoxy-3-methylimidazo [1,2-a]pyridin-2-yl]-1-(cyclopropylmethyl)pyrrolo [2,3-b]pyridin-6-yl]ethyl]-2,2-difluorocyclopropane-1-carboxamide]
